Drawing on ChEMBL document CHEMBL3992502, “Structural optimization of diphenylpyrimidine derivatives (DPPYs) as potent Bruton's tyrosine kinase (BTK) inhibitors with improved activity toward B leukemia cell lines” (Eur J Med Chem, 2017), this text covers IC50, Activity and viability for 14 compounds.

In data set [1] the test system is Ramos. Nature of the data set: Antiproliferative activity against human Ramos cells after 48 hrs by CCK-8 assay. Type of data set: functional, cell-based.
Another data set has as its system Raji. The experiment in a line: Antiproliferative activity against human Raji cells after 48 hrs by CCK-8 assay. On the technique in general: Formazan colour is commonly taken as a measure of viable cells.
For data set [2], the target named is T1, Tyrosine-protein kinase BTK (Homo sapiens, UniProt Q06187). The experiment in a line: Inhibition of N-terminal His-tagged full length human recombinant BTK expressed in baculovirus infected Sf9 insect cells using Poly (4:1 Glu, Tyr) peptide substrate incubated for 60 mins by ADP-Glo luminescence assay. (In general: ADP-Glo turns the ADP formed in a reaction into a luminescent signal.)
T1 sequence (Q06187 whole entry): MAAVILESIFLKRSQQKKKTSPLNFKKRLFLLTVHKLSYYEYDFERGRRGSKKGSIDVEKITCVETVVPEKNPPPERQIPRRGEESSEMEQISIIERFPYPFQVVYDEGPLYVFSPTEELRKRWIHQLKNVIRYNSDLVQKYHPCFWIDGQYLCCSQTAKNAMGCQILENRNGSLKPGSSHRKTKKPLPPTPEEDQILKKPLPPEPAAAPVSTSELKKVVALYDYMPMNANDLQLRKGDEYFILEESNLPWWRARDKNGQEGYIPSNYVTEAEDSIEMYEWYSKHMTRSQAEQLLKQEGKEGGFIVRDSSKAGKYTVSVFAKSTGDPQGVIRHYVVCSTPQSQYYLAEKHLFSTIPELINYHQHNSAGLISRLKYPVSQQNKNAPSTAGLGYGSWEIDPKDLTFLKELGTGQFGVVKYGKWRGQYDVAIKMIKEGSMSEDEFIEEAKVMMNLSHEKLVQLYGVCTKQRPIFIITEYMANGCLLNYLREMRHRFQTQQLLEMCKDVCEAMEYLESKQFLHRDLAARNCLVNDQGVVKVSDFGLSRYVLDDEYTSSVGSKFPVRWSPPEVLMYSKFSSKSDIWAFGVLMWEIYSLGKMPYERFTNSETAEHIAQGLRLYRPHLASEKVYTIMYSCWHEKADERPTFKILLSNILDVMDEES

Data set [3] has as its system Ramos. Nature of the data set: Induction of apoptosis in human Ramos cells assessed as early apoptotic cells at 10 uM after 48 hrs by Annexin V-FITC/propidium iodide staining based flow cytometry (reference value: 1.7%). Type of data set: functional.
The test system of data set [4] is Ramos. Nature of the data set: Induction of apoptosis in human Ramos cells assessed as viable cells at 10 uM after 48 hrs by Annexin V-FITC/propidium iodide staining based flow cytometry (reference value: 94.3%). Type of data set: functional. The settings on record: read-out: Activity. (In general: Flow cytometry measures light scatter and fluorescence of single cells or particles in a stream.)

The test system of data set [5] is Ramos. The experiment in a line: Cell cycle arrest in human Ramos cells assessed as accumulation at G0/G1 phase at 10 uM after 48 hrs by propidium iodide staining based flow cytometry (reference value: 56.19%). Format: functional.
For data set [6], the system named is Ramos. Nature of the data set: Induction of apoptosis in human Ramos cells assessed as necrotic cells at 10 uM after 48 hrs by Annexin V-FITC/propidium iodide staining based flow cytometry (reference value: 1%). Format: functional.
The subject of data set [7] is Ramos. The experiment in a line: Induction of apoptosis in human Ramos cells assessed as late apoptotic cells at 10 uM after 48 hrs by Annexin V-FITC/propidium iodide staining based flow cytometry (reference value: 3%). Type of data set: functional.
Data set [8] deals with Ramos. The experiment in a line: Cell cycle arrest in human Ramos cells assessed as accumulation at G2/M phase at 10 uM after 48 hrs by propidium iodide staining based flow cytometry (reference value: 1.58%). Type of data set: functional.
Data set [9] relates to Ramos. The experiment in a line: Cell cycle arrest in human Ramos cells assessed as accumulation at S phase at 10 uM after 48 hrs by propidium iodide staining based flow cytometry (reference value: 42.23%). Type of data set: functional.
The subject of data set [10] is Ramos. The experiment in a line: Induction of apoptosis in human Ramos cells assessed as viable cells at 5 uM after 48 hrs by Annexin V-FITC/propidium iodide staining based flow cytometry (reference value: 94.3%). Format: functional. The following applies: read-out: Activity.
In data set [11] the test system is Ramos. Nature of the data set: Cell cycle arrest in human Ramos cells assessed as accumulation at S phase at 20 uM after 48 hrs by propidium iodide staining based flow cytometry (reference value: 42.23%). Format: functional.
Data set [12] relates to Ramos. Nature of the data set: Cell cycle arrest in human Ramos cells assessed as accumulation at G2/M phase at 5 uM after 48 hrs by propidium iodide staining based flow cytometry (reference value: 1.58%). Format: functional.
Data set [13] has as its system Ramos. The experiment in a line: Cell cycle arrest in human Ramos cells assessed as accumulation at G2/M phase at 20 uM after 48 hrs by propidium iodide staining based flow cytometry (reference value: 1.58%). Type of data set: functional.
Data set [14] relates to Ramos. Nature of the data set: Cell cycle arrest in human Ramos cells assessed as accumulation at G0/G1 phase at 20 uM after 48 hrs by propidium iodide staining based flow cytometry (reference value: 56.19%). Format: functional.
Another data set concerns PBMC. The experiment in a line: Cytotoxicity against human PBMC assessed as change in cell morphology at <20 uM after 24 hrs by phase contrast microscopy. Type of data set: cell-based.
Data set [15] relates to Ramos. Nature of the data set: Induction of apoptosis in human Ramos cells assessed as necrotic cells at 5 uM after 48 hrs by Annexin V-FITC/propidium iodide staining based flow cytometry (reference value: 1%). Type of data set: functional.
Data set [16] deals with Ramos. Nature of the data set: Induction of apoptosis in human Ramos cells assessed as viable cells at 20 uM after 48 hrs by Annexin V-FITC/propidium iodide staining based flow cytometry (reference value: 94.3%). Type of data set: functional. The following applies: read-out: Activity.
Data set [17] relates to Ramos. The experiment in a line: Cell cycle arrest in human Ramos cells assessed as accumulation at G0/G1 phase at 5 uM after 48 hrs by propidium iodide staining based flow cytometry (reference value: 56.19%). Format: functional.
Data set [18] relates to Ramos. Nature of the data set: Induction of apoptosis in human Ramos cells assessed as necrotic cells at 20 uM after 48 hrs by Annexin V-FITC/propidium iodide staining based flow cytometry (reference value: 1%). Format: functional.
For data set [19], the system named is Ramos. The experiment in a line: Induction of apoptosis in human Ramos cells assessed as late apoptotic cells at 20 uM after 48 hrs by Annexin V-FITC/propidium iodide staining based flow cytometry (reference value: 3%). Format: functional.
Data set [20] concerns the target T1, Tyrosine-protein kinase BTK. Nature of the data set: Irreversible inhibition of N-terminal His-tagged full length human recombinant BTK expressed in baculovirus infected Sf9 insect cells using Poly (4:1 Glu, Tyr) peptide substrate assessed as luminescence of compound linked enzyme at 5000 nmol/L incubated for 60 mins by ADP-Glo kinase assay (reference value: 9976).

Data set [21] relates to Ramos. The experiment in a line: Induction of apoptosis in human Ramos cells assessed as early apoptotic cells at 5 uM after 48 hrs by Annexin V-FITC/propidium iodide staining based flow cytometry (reference value: 1.7%). Type of data set: functional.
Data set [22] concerns Ramos. Nature of the data set: Induction of apoptosis in human Ramos cells assessed as late apoptotic cells at 5 uM after 48 hrs by Annexin V-FITC/propidium iodide staining based flow cytometry (reference value: 3%). Type of data set: functional.
For data set [23], the system named is Ramos. Nature of the data set: Cell cycle arrest in human Ramos cells assessed as accumulation at S phase at 5 uM after 48 hrs by propidium iodide staining based flow cytometry (reference value: 42.23%). Format: functional.
For data set [24], the system named is Ramos. Nature of the data set: Induction of apoptosis in human Ramos cells assessed as early apoptotic cells at 20 uM after 48 hrs by Annexin V-FITC/propidium iodide staining based flow cytometry (reference value: 1.7%). Format: functional.

The IC50 is the concentration that inhibits the measured activity by half. As to `C=CC(=O)Nc1cccc(Nc2nc(Nc3ccc(OCC(=O)OCC4CCCO4)cc3)ncc2Cl)c1` (stereo not given), the values for the IC50 (in the data set on Ramos [1]; in the data set with Raji; in data set [2]) were above 40 µM, 9.4 µM and 0.00023 µM, respectively.
In the case of `C=CC(=O)Nc1cccc(Nc2nc(Nc3ccc(OCCOC)cc3)ncc2F)c1` [SPEBRUTINIB], the IC50 is 20.9 µM in the data set on Ramos [1] and 29.4 µM in the data set on Raji. The Activity with Ramos [3] came out at 21.2%; in the data set with Ramos [5], 31.02%; in the data set on Ramos [6], 4.3%; with Ramos [7] it was 20.4%; with Ramos [8], 20.91%; with Ramos [9] it was 47.9%. In addition, the viability at 10 µM in the data set on Ramos [4] came to 54%.
Turning to `C=CC(=O)Nc1cccc(Nc2nc(Nc3ccc(NC(=O)CN(CCOC)CCOC)cc3)ncc2F)c1`, the IC50 came out at 35.6 µM with Ramos [1], 36.9 µM in the data set with Raji and 0.0913 µM in [2].
Consider `C=CC(=O)Nc1cccc(Nc2nc(Nc3ccc(N(CCOC)CCOC)cc3)ncc2F)c1`, for which the IC50 with Ramos [1] is 18.1 µM; in the data set with Raji it was 23.8 µM; in data set [2] it was 0.00712 µM.
In turn, `C=CC(=O)N1CCC[C@@H](n2nc(-c3ccc(Oc4ccccc4)cc3)c3c(N)ncnc32)C1` [IBRUTINIB] displayed a concentration for half-maximal inhibition (IC50) with Ramos [1] of 12.6 µM. Further, the Activity worked out at 37% in the data set with Ramos [3]; 46.35% in the data set on Ramos [5]; 0.1% in the data set with Ramos [6]; 0.15% with Ramos [8]; 53.5% with Ramos [9]. For the same compound, the viability at 10 µM with Ramos [4] came out at 52%.
Consider `C=CC(=O)Nc1cccc(Nc2nc(Nc3ccc(OCC(=O)N(CCOC)CCOC)cc3)ncc2Cl)c1`, for which the values for the half-maximal inhibitory concentration (IC50) (with Ramos [1]; with Raji; in data set [2]) were 18.1 µM, 20.1 µM and 0.00283 µM, respectively.
Turning to `C=CC(=O)Nc1cccc(Nc2nc(Nc3ccc(NC(=O)CN(CCOC)CCOC)cc3)ncc2Cl)c1`, the half-inhibitory concentration (IC50) came to 14.8 µM in the data set with Ramos [1], 19.9 µM with Raji and 0.0226 µM in data set [2].
On the same counts, the results for `C=CC(=O)Nc1cccc(Nc2nc(Nc3ccc(NC(=O)CN(CCOC)CCOC)c(C)c3)ncc2Cl)c1` are 19.6 µM, 35.6 µM and 0.02 µM.
For the compound `C=CC(=O)Nc1cccc(Nc2nc(Nc3ccc(N(CCOC)CCOC)cc3)ncc2Cl)c1`, the IC50 in the data set on Ramos [1] came out at 13 µM; in the data set with Raji, 30.5 µM; in data set [2], 0.00494 µM.
On the same counts, the results for `C=CC(=O)Nc1cccc(Nc2nc(Nc3ccc(NC(=O)CN(CCOC)CCOC)c(OC)c3)ncc2Cl)c1` are 11 µM, 20.9 µM and above 0.1 µM.
Regarding `C=CC(=O)Nc1cccc(Nc2nc(Nc3ccc(OCC(=O)N(CCOC)CCOC)cc3)ncc2F)c1`, the IC50 with Ramos [1] is above 40 µM; with Raji it was 36 µM; in data set [2] it was 0.0272 µM.
Turning to `C=CC(=O)Nc1cccc(Nc2nc(Nc3ccc(OCC4CCCO4)cc3)ncc2Cl)c1` (stereo not given), in the data set with Ramos [10], the viability at 5 µM came to 50.1%. Moreover, the values for the 50% inhibitory concentration (IC50) (with Ramos [1]; in the data set with Raji; in data set [2]) were 10.5 µM, 19.1 µM and 0.0121 µM, respectively. In addition, the Activity with Ramos [11] was 28.39%; in the data set on Ramos [12], 0%; in the data set with Ramos [13], 0.86%; in the data set on Ramos [14] it was 70.75%; with PBMC it was “Non-Toxic”; in the data set with Ramos [15] it was 2.2%. Further, the Activity in the data set with Ramos [3] came to 12.6%; in the data set with Ramos [5], 63%; in the data set with Ramos [6], 1.2%; in the data set on Ramos [7], 34.2%; in the data set with Ramos [17] it was 53.18%; in the data set with Ramos [18], 0.1%. For the same compound, the Activity worked out at 57.2% in the data set with Ramos [19]; 0% in the data set with Ramos [8]; 383 RLU in data set [20]; 11% in the data set with Ramos [21]; 27% in the data set with Ramos [22]; 46.82% with Ramos [23]. The Activity with Ramos [9] amounted to 37%; in the data set on Ramos [24], 26.4%. The viability at 10 µM with Ramos [4] came out at 50%. For the same compound, the viability at 20 µM with Ramos [16] was determined as 16.2%.
On to `C=CC(=O)Nc1cccc(Nc2nc(Nc3ccc(OCC4CCCO4)cc3)ncc2F)c1` (stereo not given), for which the IC50 in the data set on Ramos [1] is 22.3 µM; in the data set on Raji it was 38.6 µM; in data set [2], 0.0224 µM.
For the compound `C=CC(=O)Nc1cccc(Nc2nc(Nc3ccc(OCC(=O)N(CCOC)CCOC)c(Cl)c3)ncc2Cl)c1`, the half-maximal inhibitory concentration (IC50) with Ramos [1] was 16.9 µM; with Raji, 19.3 µM; in data set [2] it was above 0.1 µM.
